Results taken from patent US20220195360A1, “Additive Manufacturing of Functional Myocardial Tissue” (The United States of America, as represented by the …, priority 2017, published 2022).
Where two headings read alike, the source gives them in different places.

Key:
Type in all cases: cell-based
[1] = tested on: endothelial cells (HUVECs); assay: vWF expression by the endothelial component of the endothelialized-human-myocardium-on-a-chip; conditions: different doses, human model (FIG. 8D) compared with rat model (FIG. 7D)
Method: (§1) Both bioink 26 and CaCl2) solutions can be maintained at 37° C. before use. HUVECs can be re-suspended in the bioink at a concentration of 1×10^7 cells/mL. Following the bioprinting and the subsequent crosslinking processes, the constructs can be washed with PBS to remove excess CaCl2). After washing, the constructs can be cultured in endothelial cell growth medium (EGM) at 37° C. and 5% CO2 volume throughout a period of up to 33 days. The EGM/CO2 medium can be changed twice in the first day and then every 2 days thereafter.
(§2) Live/Dead staining was performed according to the manufacturer's instructions (THERMO FISHER®). Beating of the cardiomyocytes was observed using an optical microscope and analyzed using custom-coded MATLAB programs, as known in the prior art. Monitoring of the beating behavior was performed every day until contractions were no longer observed. […] The levels of secreted vWF were measured by an ELISA kit (ab189571) by ABCAM®.
(§3) The same procedures for fabricating the vascular beds using bioprinted microfibrous scaffolds as described above were used, but hiPSC-cardiomyocytes were subsequently seeded instead of the neonatal rat cells. […] The human-derived myocardial organoids seemed to have slightly lower endurance at all of the time points analyzed in comparison to those of rat origin (FIG. 8C versus FIG. 7C). […]

hiPSC-cardiomyocytes = conditions: human
Method: The seeding of hiPSC-cardiomyocytes can follow the same procedure that is described above for neonatal rat cardiomyocytes, except that a Roswell Park Memorial Institute (RPMI)-1640 medium containing 1×B27 supplements (by GIBCO®) can be used for culturing. Other choices in the prior art that are known for culturing cardiomyocytes might also be possible.
as §2, §3

[2] = tested on: endothelial cells (HUVECs); conditions: human, 6 day
Method: as §1, §2
(§4) For example, the endothelialized-myocardium-on-a-chip model can be used to assess treatment by a common anti-cancer drug, doxorubicin. Unlike other pre-existing models, where only individual cell types were typically included, doxorubicin elicited dose-dependent responses towards both cardiomyocytes and endothelial cells when assessed using the systems and methods of several embodiments.

[3] = tested on: neonatal rat cardiomyocytes; conditions: 6 day
Method: For testing of the systems and methods according to several embodiments, neonatal rat cardiomyocytes were seeded following the formation of a layer of confluent endothelium at the peripheries the microfibers of the scaffolds, which generally occurred in 15 days. Freshly isolated cardiomyocytes were suspended in DMEM at a final concentration of 1×10^6 cells m/L. The scaffolds were individually placed on top of a thin layer of hydrophobic polydimethylsiloxane (PDMS). Approximately 40 μL of cell suspension was dropped to cover each scaffold, and incubated at 37° C. for 2 hours, to allow the cardiomyocytes to adhere onto the microfibers. […]
as §2, with “art.” for “art. Monitoring of the beating behavior was performed every day until contractions were no longer observed.”, “ABCAM®. […]” for “ABCAM®.”
as §4

relative beating of the hiPSC-cardiomyocytes (hiPSC-cardiomyocytes; 10 μM): 66.0%
relative beating of the hiPSC-cardiomyocytes (hiPSC-cardiomyocytes; 100 μM): 2.78%
levels of von Willebrand factor (vWF) secreted by the endothelial cells ([2]; 10 μM): 76.0%
levels of von Willebrand factor (vWF) secreted by the endothelial cells ([2]; 100 μM): 35.3%
relative beating rate of the cardiomyocytes ([3]; 10 μM): 70.5%
relative beating rate of the cardiomyocytes ([3]; 100 μM): 1.62%
SMILES: COc1cccc2c1C(=O)c1c(O)c3c(c(O)c1C2=O)C[C@@](O)(C(=O)CO)C[C@@H]3O[C@H]1C[C@H](N)[C@H](O)[C@H](C)O1 [doxorubicin]
toxicity on the endothelial component of the constructs (vWF expression) [1]: corresponded well with that observed for the rat myocardial organoids
